Results as given in patent US12428405B2, “Chalcone-based chemotherapeutic compound for triple negative breast cancer” (QATAR UNIVERSITY, priority 2019, dated 2025).
“Also recorded” adds a separate entry of the source. Read-outs that look alike come from different tables or passages of the source.

How the values were obtained:
MCF-7 [1] = test: Soft agar colony formation assay; format: cell-based; details: for less colonies as compared to untreated: 5 and 10 μM, 14 days post treatment; for colony formation (in words): MCF-7, soft agar
MDA-MB-231 [2] = test: Migration (wound healing) assay; format: cell-based; details: for IC50: 24 hours of treatment, 5 concentrations, two independent experiments, read-out: Migratory IC50 MDA-MB-231; for activity at 5 µM: 24 hours post treatment, control = 100, Mean ± SEM (N = 2 × 2), read-out: % migration
Description: MDA-MB-231 cells were seeded in 12-wells plates at a concentration of 500,000 cells/well and were incubated in complete RPMI culture medium until covering the well and reaching around 90-100% confluency. Following, cells were serum starved for 4 hours and a 200 μl pipette tip was used to create the scratch followed by cell washing with PBS twice. […] Microscopic pictures were then taken, and cell migration was quantified based on the wound diameter at 24 hours minus the initial diameter at time zero, as represented by the following equation: % Migration=[…]

MDA-MB-468 [3] = test: Matrigel invasion assay; format: cell-based; details: 24 hours; 13 (10 μM), 14 (5 μM)
Description: (§1) Matrigel-coated invasion chamber plates (CORNING, USA) were used to study the invasive property of MDA-MB-231, MDA-MB-468 and MCF-7 cancer cells. Cells were seeded at a concentration of 5×10^4 cells/0.5 ml in each upper chamber well and maintained in RPMI serum free medium. Complete RPMI medium with 10% FBS was added to each base well at 600 μl/well to act as an attractant to the cells in the upper chamber. After 24 hours, cells were fixed using a 3.70% formaldehyde as a fixator for 5 minutes. […] Thereafter, cells were stained using 5% crystal violet dissolved in ethanol and were incubated for 5 minutes followed by several rounds of washing with PBS. Cells were then visualized under the microscope and 4 pictures/well were taken from different zones. ImageJ software was used to quantify the number of invaded cells in each well.

MCF-7 [4] = test: Matrigel invasion assay; format: cell-based; details: 24 hours; 13 (10 μM), 14 (5 μM)
Description: as §1

MDA-MB-231 [5] = test: Matrigel invasion assay; format: cell-based; details: 24 hours; 13 (10 μM), 14 (5 μM)
Description: as §1

MDA-MB-468 [6] = test: Morphological examination; format: cell-based; details: 10 μM; 24 hours
Description: (§2) MCF-7, MDA-MB-231, MDA-MB-468 and HNME-E6/E7 cells were seeded in a 6-well plates at a concentration of 200,000-300,000 cells/well and were incubated overnight. After incubation, cells were treated with different compounds.

MCF-7 [7] = test: Morphological examination; format: cell-based; details: 10 μM; 48 hours
Description: as §2

MDA-MB-231 [8] = test: Morphological examination; format: cell-based; details: 10 μM
Description: as §2

HNME-E6/E7 [9] = test: Morphological examination of normal cells; format: cell-based, human; details: 5 μM; 48 hours
Description: as §2

[10] = test system: TNBC (MDA-MB-231 and MDA-MB-231) and estrogen positive (MCF-7 and BT-474) cell lines; test: MTT cell viability, breast cancer cell line panel (summary statements); format: cell-based
Source text: (§3) Breast cancer cell lines including MDA-MB-231, MDA-MB-468, MCF-7, BT-474 and SK-BR-3 were obtained from the American Type Tissue Culture (ATCC) and maintained in complete cell culture media Gibco® RPMI 1640 (Thermo Fisher Scientific, USA) supplemented with 10% fetal bovine serum (PAN-Biotech, Aidenbach, Bavaria, Germany) and 1% penicillin/streptomycin (1×) antibiotics (Thermo Fisher Scientific, USA). Human normal mammary epithelial cells immortalized by E6/E7 of HPV type 16 (HNME-E6/E7) were used to predict potential safety of the compounds (125, 126). They were maintained in Gibco® Keratinocyte-SFM (1×) media. All cells were incubated in 5% CO2 at 37° C. incubator. Cells were maintained by routine sub-culturing in T-75 and T25 filtered tissue culture flasks.
(§4) MDA-MB-231, MDA-MB-468, MCF-7, BT-474 and HNME-E6/E7 cells were seeded overnight in 96-well plates at a concentration of 8000-10,000/well depending on their pre-calculated cell density and were incubated overnight. At 24 hours, media was replaced with fresh one. The treatment wells included 6-8 different concentrations of the compounds ranging between 0.25 μM-160 μM. […] Absorbance was recorded at a wavelength of 562 nm after 3 minutes of shaking using Infinite 200 PRO Microplate Reader (Tecan, Switzerland). Percentage of viable cells was calculated using the following formula: […]

MDA-MB-468 [11] = test: MTT cell viability; format: cell-based; details: for IC50: Homo sapiens, MDA-MB-468, 48 hours of treatment, Mean ± SEM (n = 3 × 3); for SI of HNME/MDA-468 (selective index): ratio of LD50 on HNME-E6/E7 to IC50 on MDA-MB-468
Source text: as §3
MDA-MB-231, MDA-MB-468, MCF-7, BT-474 and HNME-E6/E7 cells were seeded overnight in 96-well plates at a concentration of 8000-10,000/well depending on their pre-calculated cell density and were incubated overnight. At 24 hours, media was replaced with fresh one. The treatment wells included 6-8 different concentrations of the compounds ranging between 0.25 μM-160 μM. At 48 hours post treatment, 10 μL MTT solution was added to each well followed by 4 hours of incubation. Afterwards, media with MTT was removed from all wells and 50 μl DMSO was added to each well to dissolve the crystals. This was followed by 5 minutes incubation. Absorbance was recorded at a wavelength of 562 nm after 3 minutes of shaking using Infinite 200 PRO Microplate Reader (Tecan, Switzerland). Percentage of viable cells was calculated using the following formula: […]

MDA-MB-468 [12] = test: Cell cycle analysis (flow cytometry); format: cell-based; details: 48 hours
Description: (§5) The MDA-MB-231, MDA-MB-468 and MCF-7 cell lines were seeded on 6-well plates at a concentration of 200,000 cells per well and were maintained in culture supplemented with 10% fetal bovine serum for 8-10 hours. The same day, media was removed and cells were incubated overnight with serum free media. Second day, cells were treated with the compounds. Adherent and floating cell populations were harvested at 48 hours after treatment with different concentrations of the compounds and counted.
(§6) Afterward, cells were washed with cold PBS once, centrifuged at 4° C. and fixed with 1.5 ml cold 70% ethanol added drop wise while slowly vortexing. Samples were then stored at […] Following fixation, cells were pelleted and washed with ice-cold PBS. Equal aliquots were collected and resuspended in 300 μl of Tali® Cell Cycle Kit and incubated at 37 C. with slow shaking speed for 30 minutes in the dark. Accuri C6 flow cytometer (BD Biosciences, USA) was used to analyze the cells. The FlowJo V10 software was used to process and evaluate the results.

MCF-7 [13] = test: Cell cycle analysis (flow cytometry); format: cell-based; details: 48 h; 10 μM of compound 13, 5 μM of compound 14
Description: as §5, §6

MDA-MB-231 [14] = test: Cell cycle analysis (flow cytometry); format: cell-based; details: 48 hours
Description: as §5, §6

MDA-MB-468 [15] = test: Soft agar colony formation assay; format: cell-based; details: for less colonies as compared to untreated: 5 and 10 μM, 14 days post treatment
HNME-E6/E7 [16] = test: MTT cell viability on immortalized normal mammary epithelial cells; format: cell-based, human; details: normal cell line; 48 hours of treatment; Mean ± SEM (n = 3 × 3)
Source text: as §3, §4

Structure (SMILES): CS(=O)(=O)c1ccc(C(=O)/C=C/c2ccc(N(CCCl)CCCl)cc2)cc1 [Compound 13, (E)-3-(4-(Bis(2-chloroethyl)amino)phenyl)-1-(4-(methylsulfonyl)phenyl) prop-2-en-1-one]
- less colonies as compared to untreated (MCF-7 [1]): ~100%
- colony formation (in words) (MCF-7 [1]): better effects on MCF-7 as compared to colchicine
- IC50 (MDA-MB-231 [2]; Homo sapiens, MDA-MB-231, 24 h): 5.71 ± 0.57 µM
- activity at 5 µM (MDA-MB-231 [2]; Homo sapiens, MDA-MB-231, 5 μM): 59.5 ± 2.75%
- reduction of cancer cells invasion vs DMSO control (MDA-MB-468 [3]): 48.45%
- reduction of cancer cells invasion vs DMSO control (MCF-7 [4]): 45.70%
- reduction of cancer cells invasion vs DMSO control (MDA-MB-231 [5]): 79.57%
- cell morphology (MDA-MB-468 [6]): obvious change in cell shape
- cell morphology (MCF-7 [7]): triggered cells to become larger in shape
- cell morphology (MDA-MB-231 [8]; 24 hours): look more spherical in shape and to lose their mesenchymal fibroblastic property
- cell morphology (MDA-MB-231 [8]; 48 hours): Mainly single circular cells were obvious
- cell morphology of normal cells (HNME-E6/E7 [9]): induced morphological changes
- selectivity, approximately similar between different breast cancer cell lines ([10]; versus HNME-E6/E7 normal cells): ~3
- IC50 (MDA-MB-468 [11]): 9.29 ± 0.68 µM
- SI of HNME/MDA-468 (selective index) (MDA-MB-468 [11]): 3.48
- cell cycle arrest at the S phase (cells percentage) (MDA-MB-468 [12]; 10 μM of compound 13): 46.8±5.39%
- cell cycle arrest (in words) (MCF-7 [13]): mainly noticed in the invasive cell lines but not in the noninvasive, MCF-7, cells
- cell cycle arrest at the S phase (cells percentage) (MDA-MB-231 [14]; 10 μM of compound 13): 28.7±1.87%
- less colonies as compared to untreated (MDA-MB-468 [15]): ~100%
- LD50 HNME-E6/E7 (HNME-E6/E7 [16]): 32.32 ± 3.93 µM

Structure (SMILES): COc1cccc(C(=O)/C=C/c2ccc(N(CCCl)CCCl)cc2)c1 [Compound 14, (E)-3-(4-(Bis(2-chloroethyl)amino)phenyl)-1-(3-methoxyphenyl) prop-2-en-1-one]
- less colonies as compared to untreated (MCF-7 [1]): ~100%
- colony formation (in words) (MCF-7 [1]): completely inhibited; also recorded: better effects on MCF-7 as compared to colchicine
- IC50 (MDA-MB-231 [2]): 2.86 ± 0.197 µM
- IC50 (MDA-MB-231 [2]; Homo sapiens, MDA-MB-231, 24 h): 2.86 ± 0.2 µM
- activity at 5 µM (MDA-MB-231 [2]; Homo sapiens, MDA-MB-231, 5 μM): 32.11 ± 0.17%
- inhibition at 5 µM (MDA-MB-231 [2]; Homo sapiens, MDA-MB-231, 5 μM, 24 hours, read-out: inhibition of cell migration): 67.89 ± 0.17%
- reduction of cancer cells invasion vs DMSO control (MDA-MB-468 [3]): 59.28%
- reduction of cancer cells invasion vs DMSO control (MCF-7 [4]): 57.26%
- reduction of cancer cells invasion vs DMSO control (MDA-MB-231 [5]): 82.54%
- cell morphology (MDA-MB-468 [6]): obvious change in cell shape
- cell morphology (MCF-7 [7]): induced cell shrinkage
- cell morphology (MDA-MB-231 [8]; 24 hours): did not induce a significant difference
- cell morphology (MDA-MB-231 [8]; 48 hours): change in cell shape
- cell morphology of normal cells (HNME-E6/E7 [9]): induced morphological changes
- IC50 ([10]; TNBC and estrogen positive cell lines, read-out: anti-proliferative IC50 values, range over cell lines): 3.94 to 9.22 µM
- IC50 (MDA-MB-468 [11]): 8.73 ± 0.67 µM
- SI of HNME/MDA-468 (selective index) (MDA-MB-468 [11]): 2.36
- cells arrested at the G2/M phase (cells percentage) (MDA-MB-468 [12]; 5 μM of compound 14): 66.45±4.25%
- cell cycle arrest (in words) (MCF-7 [13]): mainly noticed in the invasive cell lines but not in the noninvasive, MCF-7, cells
- cells arrested at the G2/M phase (cells percentage) (MDA-MB-231 [14]; 5 μM of compound 14): 47.27±7.869%
- less colonies as compared to untreated (MDA-MB-468 [15]): ~100%
- colony formation (in words) (MDA-MB-468 [15]; MDA-MB-468, soft agar): completely inhibited
- LD50 HNME-E6/E7 (HNME-E6/E7 [16]): 20.67 ± 1.50 µM
